Data as given in ChEMBL document CHEMBL5726298, “Heteroaryl-pyrimidinone compounds as PDE2 inhibitors” (2019).
pKi: −log10 of the molar value.

Target: T1, GMP-stimulated 3',5'-cyclic nucleotide phosphodiesterase (Macaca mulatta, UniProt B3VTJ2)
T1 sequence (B3VTJ2 whole entry): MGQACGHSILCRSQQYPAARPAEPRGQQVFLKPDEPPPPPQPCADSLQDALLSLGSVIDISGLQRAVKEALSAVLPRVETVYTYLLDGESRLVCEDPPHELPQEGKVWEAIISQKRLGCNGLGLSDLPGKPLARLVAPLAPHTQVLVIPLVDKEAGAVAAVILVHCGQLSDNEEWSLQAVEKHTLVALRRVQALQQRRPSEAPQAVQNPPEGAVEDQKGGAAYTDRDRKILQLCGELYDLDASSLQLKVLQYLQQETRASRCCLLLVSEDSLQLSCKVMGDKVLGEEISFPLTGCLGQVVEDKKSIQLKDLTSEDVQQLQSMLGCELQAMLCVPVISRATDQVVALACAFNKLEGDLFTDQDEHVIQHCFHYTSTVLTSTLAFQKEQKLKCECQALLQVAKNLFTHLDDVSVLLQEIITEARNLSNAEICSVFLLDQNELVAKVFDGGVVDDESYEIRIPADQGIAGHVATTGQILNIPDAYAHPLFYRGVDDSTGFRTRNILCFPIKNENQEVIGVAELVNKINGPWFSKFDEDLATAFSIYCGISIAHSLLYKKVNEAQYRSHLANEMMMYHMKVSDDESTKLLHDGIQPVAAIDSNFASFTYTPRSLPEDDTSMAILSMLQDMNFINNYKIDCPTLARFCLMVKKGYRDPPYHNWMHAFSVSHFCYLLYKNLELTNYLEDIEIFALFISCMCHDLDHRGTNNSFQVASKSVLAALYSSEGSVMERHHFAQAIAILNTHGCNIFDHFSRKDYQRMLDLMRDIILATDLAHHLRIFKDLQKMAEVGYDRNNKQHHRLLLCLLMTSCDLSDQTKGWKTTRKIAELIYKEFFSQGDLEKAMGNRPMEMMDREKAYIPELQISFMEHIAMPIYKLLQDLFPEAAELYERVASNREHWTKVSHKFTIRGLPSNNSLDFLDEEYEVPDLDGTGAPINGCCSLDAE
Assay: PDE2A3 assay: The activity of the compounds in accordance with the present invention as PDE2 inhibitors may be readily determined using a fluorescence polarization (FP) methodology (Huang, W., et al., J. Biomol Screen, 2002, 7: 215). […] Done in Lab A for rhPDE2A3.

pKi: 5.91
SMILES: Cc1nc(-c2csc(C(C)c3ccc(C(F)(F)F)cc3)n2)cc(=O)[nH]1 (stereo unspecified)
